Data as given in US20140031283A1, “ANTICANCER FUSION PROTEIN” (ADAMED SP. Z O.O., priority 2011, published 2014).

System: human colon cancer Colo205
Experiment: Colo205 colon cancer xenograft in Crl:SHO-Prkdc^scidHr^hr mice
Assay type: in vivo
Settings: 30 mg/kg i.v. six times every second day, 33rd day
Experimental: Antitumor activity of protein preparations was tested in a mouse model of human colon cancer HCT116, human colon cancer Colo205, human colon cancer model SW620, human liver cancer model HepG2, and human lung cancer models NCI-H460 and NCI-H460-Luc2.
The HCT116 (in mice Crl:CD1-Foxn1^nu 1), Colo205, NCI-H460, NCI-H460-Luc2 cells were maintained in RPMI 1640 medium (Hyclone, Logan, Utah, USA) mixed in the ratio of 1:1 with Opti-MEM (Invitrogen, Cat.22600-134) supplemented with 10% fetal calf serum and 2 mM glutamine. On the day of mice grafting, the cells were detached from the support by washing the cells with trypsin (Invitrogen), then the cells were centrifuged at 1300 rpm, 4° C., 8 min., suspended in HBSS buffer (Hanks medium), counted and diluted to the concentration of 25×10^6 cells/ml.
Examination of antitumor activity of proteins of the invention was conducted on 7-9 week-old CD-nude (Crl:CD1-Foxn1^nu 1) or 4-6 week-old Crl:SHO-Prkdc^scidHr^hr mice obtained from Charles River Germany. Mice were kept under specific pathogen-free conditions with free access to food and demineralised water (ad libitum). All experiments on animals were carried in accordance with the guidelines: “Interdisciplinary Principles and Guidelines for the Use of Animals in Research. […]

rhTRAIL114-281: recombinant human soluble TRAIL, amino acids 114-281 of hTRAIL, used as the comparative reference
tumor growth inhibition (TGI) relative to the control: 18.8%
